Measurements: patent publication US20230115945A1, “AMINOPYRIMIDINE COMPOUNDS” (TYRA BIOSCIENCES, INC., priority 2019, published 2023)
pKd: −log10 of the molar value.

Key:
FGFR3 = target: T1, FGFR3 (Homo sapiens, UniProt P22607); experiment: Kinase binding assay (Kd), FGFR3; conditions: 11-point 3-fold dilution, qPCR readout
T1 construct: made in house; host or cells: E. coli host derived from BL21, infected with T7 phage
Procedure: (§1) Kinase-tagged T7 phage strains were prepared in an E. coli host derived from the BL21 strain. E. coli were grown to log-phase and infected with T7 phage and incubated with shaking at 32° C. until lysis. The lysates were centrifuged and filtered to remove cell debris. Streptavidin-coated magnetic beads were treated with biotinylated small molecule ligands for 30 minutes at room temperature to generate affinity resins for kinase assays. The liganded beads were blocked with excess biotin and washed with blocking buffer SeaBlock (Pierce), 1% BSA, 0.05% Tween 20, 1 mM DTT to remove unbound ligand and to reduce non-specific binding. Binding reactions were assembled by combining kinases, liganded affinity beads, and test compounds in 1× binding buffer (20% SeaBlock, 0.17×PBS, 0.05% Tween 20, 6 mM DTT).
(§2) Test compounds were prepared as 111X stocks in 100% DMSO. Kds were determined using an 11-point 3-fold compound dilution series with three DMSO control points. All compounds for Kd measurements are distributed by acoustic transfer (non-contact dispensing) in 100% DMSO. The compounds were then diluted directly into the assays such that the final concentration of DMSO was 0.9%. All reactions performed in polypropylene 384-well plate. Each was a final volume of 0.02 ml. The assay plates were incubated at room temperature with shaking for 1 hour and the affinity beads were washed with wash buffer (lx PBS, 0.05% Tween 20). The beads were then re-suspended in elution buffer (lx PBS, 0.05% Tween 20, 0.5 μM non-biotinylated affinity ligand) and incubated at room temperature with shaking for 30 minutes. The kinase concentration in the eluates was measured by qPCR.
(§3) Binding constants were calculated with a standard dose-response curve using the Hill equation: […]
(§4) The Hill Slope was set to −1. Curves were fitted using a non-linear least square fit with the Levenberg-Marquardt algorithm.

[1] = test system: RT112/84 cells (Bladder Cancer, FGFR3-TACC3 fusion); experiment: Cancer cell line cell viability assay, RT112/84; assay type: cell-based; conditions: Homo sapiens, 72 hours, Cell Titer-Glo 2.0, read-out: Cancer Cell Viability Assays RT112/84 (IC50 nM)
From the text: (§5) [table] To detect the change of intracellular ATP by Cell Titer-Glo® and to evaluate the inhibitory effect of the compounds on cancer cell lines by determining the in vitro IC50 value of the compounds. Cell Titer-Glo® 2.0 Luminescent cell viability assay reagent was purchased from Promega (Madison, Wis.). RT112/84, SNU-16, and KG-1 cell lines were purchased from American Type Culture Collection (Manassas, Va.). UM-UC-14 cell line was purchased from Sigma (St. Louis, Mo.). RT112/84, UM-UC-14, SNU-16, and KG-1 cells were cultured in RPMI1640 media supplemented with 10% fetal bovine serum. Cultures were maintained at 37° C. in a humidified atmosphere of 5% CO2 and 95% air. Cell Viability Assay Procedure: Cells were plated in 96-well clear bottom/white plates (Corning #3903) at 10,000 cells/well in 100 μl of media, incubated overnight. The next day, test compound DMSO stock solutions were made at 10 mM and 2 μM final concentration. Compounds were then added to cells in a 9-dose, […] dilution series starting at 30 μM with an HP 300e Digital Dispenser (each dose was applied in triplicate). DMSO was backfilled to each well up to 301 nL total volume of test compound+DMSO, and a total of 301 nL DMSO was added to a control/no test compound well in triplicate. The cells in cell culture plates were incubated with the compounds at 37° C. and 5% CO2 for 72 hours. Then 50 μl of Cell Titer Glo 2.0 reagent was added to each well of the cell culture plates. The contents were covered from light and mixed on an orbital shaker at room temperature for 10 min. Luminescence was recorded by a Synergy H1 Microplate Reader (Biotek, Winooski, Vt.). Cells were assessed as a percentage of DMSO only treated control cells. Curves were plotted and IC50 values were calculated using the GraphPad Prism 8 program based on a sigmoidal dose-response equation (4 parameter).

FGFR4 = target: T2, FGFR4 (Homo sapiens, UniProt P22455); experiment: Kinase binding assay (Kd), FGFR4; conditions: 11-point 3-fold dilution, qPCR readout
T2 construct: made in house; host or cells: E. coli host derived from BL21, infected with T7 phage
Procedure: as §1, §2, §3, §4

FGFR2 = target: T3, FGFR2 (Homo sapiens, UniProt P21802); experiment: Kinase binding assay (Kd), FGFR2; conditions: 11-point 3-fold dilution, qPCR readout
T3 construct: made in house; host or cells: E. coli host derived from BL21, infected with T7 phage
Procedure: as §1, §2, §3, §4

[2] = test system: SNU-16 cells (Gastric Carcinoma, FGFR2 amplification); experiment: Cancer cell line cell viability assay, SNU-16; assay type: cell-based; conditions: Homo sapiens, 72 hours, Cell Titer-Glo 2.0, read-out: Cancer Cell Viability Assays SNU-16 (IC50 nM)
From the text: as §5

FGFR1 = target: T4, FGFR1 (Homo sapiens, UniProt P11362); experiment: Kinase binding assay (Kd), FGFR1; conditions: 11-point 3-fold dilution, qPCR readout
T4 construct: made in house; host or cells: E. coli host derived from BL21, infected with T7 phage
Procedure: as §1, §2, §3, §4

FGFR3 (V555M) = target: T5, FGFR3 (V555M) (Homo sapiens, UniProt P22607, V555M); experiment: Kinase binding assay (Kd), FGFR3 (V555M); conditions: 11-point 3-fold dilution, qPCR readout
T5 construct: made in house; host or cells: E. coli host derived from BL21, infected with T7 phage
Procedure: as §1, §2, §3, §4

T1 sequence (P22607 23-806): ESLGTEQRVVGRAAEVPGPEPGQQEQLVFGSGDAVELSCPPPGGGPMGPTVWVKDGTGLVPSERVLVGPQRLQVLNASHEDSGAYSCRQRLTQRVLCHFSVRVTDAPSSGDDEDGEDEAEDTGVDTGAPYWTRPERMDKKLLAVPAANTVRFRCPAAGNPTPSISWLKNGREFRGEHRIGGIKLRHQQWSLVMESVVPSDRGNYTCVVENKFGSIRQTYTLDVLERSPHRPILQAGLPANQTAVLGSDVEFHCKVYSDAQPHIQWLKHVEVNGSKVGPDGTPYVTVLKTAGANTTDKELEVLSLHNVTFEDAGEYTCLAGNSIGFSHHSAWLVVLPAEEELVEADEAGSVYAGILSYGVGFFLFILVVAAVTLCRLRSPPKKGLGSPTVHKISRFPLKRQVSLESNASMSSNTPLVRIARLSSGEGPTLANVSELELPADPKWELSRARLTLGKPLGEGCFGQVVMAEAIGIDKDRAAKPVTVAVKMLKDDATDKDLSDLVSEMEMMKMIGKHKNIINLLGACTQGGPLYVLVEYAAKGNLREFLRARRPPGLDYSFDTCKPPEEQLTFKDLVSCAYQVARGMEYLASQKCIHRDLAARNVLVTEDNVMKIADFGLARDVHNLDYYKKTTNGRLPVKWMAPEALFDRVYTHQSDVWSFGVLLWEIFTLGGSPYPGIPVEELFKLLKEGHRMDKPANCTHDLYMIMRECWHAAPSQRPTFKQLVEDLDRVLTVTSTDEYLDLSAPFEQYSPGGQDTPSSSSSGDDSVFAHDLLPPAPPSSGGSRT
T3 sequence (P21802 22-821): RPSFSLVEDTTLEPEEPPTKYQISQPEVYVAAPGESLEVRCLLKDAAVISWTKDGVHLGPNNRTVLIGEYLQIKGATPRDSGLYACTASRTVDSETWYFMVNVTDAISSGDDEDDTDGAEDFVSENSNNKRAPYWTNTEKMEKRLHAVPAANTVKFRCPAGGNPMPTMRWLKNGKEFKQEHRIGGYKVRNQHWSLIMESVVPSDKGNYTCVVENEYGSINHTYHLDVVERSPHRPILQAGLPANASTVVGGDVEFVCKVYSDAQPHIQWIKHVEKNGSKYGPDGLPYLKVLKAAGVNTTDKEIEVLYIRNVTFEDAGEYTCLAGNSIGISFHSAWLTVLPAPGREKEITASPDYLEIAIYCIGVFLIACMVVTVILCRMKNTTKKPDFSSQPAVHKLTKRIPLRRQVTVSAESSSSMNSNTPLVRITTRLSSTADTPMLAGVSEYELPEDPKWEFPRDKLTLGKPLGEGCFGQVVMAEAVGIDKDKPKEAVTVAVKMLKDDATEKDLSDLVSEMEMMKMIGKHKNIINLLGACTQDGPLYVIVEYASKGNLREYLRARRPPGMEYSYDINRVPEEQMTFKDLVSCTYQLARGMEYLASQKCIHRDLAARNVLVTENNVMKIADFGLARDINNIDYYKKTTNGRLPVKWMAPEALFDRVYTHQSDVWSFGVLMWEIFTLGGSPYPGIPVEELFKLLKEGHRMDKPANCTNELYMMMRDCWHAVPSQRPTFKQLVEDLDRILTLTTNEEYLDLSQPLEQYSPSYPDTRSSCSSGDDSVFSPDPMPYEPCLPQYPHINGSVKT
T2 sequence (P22455 22-802): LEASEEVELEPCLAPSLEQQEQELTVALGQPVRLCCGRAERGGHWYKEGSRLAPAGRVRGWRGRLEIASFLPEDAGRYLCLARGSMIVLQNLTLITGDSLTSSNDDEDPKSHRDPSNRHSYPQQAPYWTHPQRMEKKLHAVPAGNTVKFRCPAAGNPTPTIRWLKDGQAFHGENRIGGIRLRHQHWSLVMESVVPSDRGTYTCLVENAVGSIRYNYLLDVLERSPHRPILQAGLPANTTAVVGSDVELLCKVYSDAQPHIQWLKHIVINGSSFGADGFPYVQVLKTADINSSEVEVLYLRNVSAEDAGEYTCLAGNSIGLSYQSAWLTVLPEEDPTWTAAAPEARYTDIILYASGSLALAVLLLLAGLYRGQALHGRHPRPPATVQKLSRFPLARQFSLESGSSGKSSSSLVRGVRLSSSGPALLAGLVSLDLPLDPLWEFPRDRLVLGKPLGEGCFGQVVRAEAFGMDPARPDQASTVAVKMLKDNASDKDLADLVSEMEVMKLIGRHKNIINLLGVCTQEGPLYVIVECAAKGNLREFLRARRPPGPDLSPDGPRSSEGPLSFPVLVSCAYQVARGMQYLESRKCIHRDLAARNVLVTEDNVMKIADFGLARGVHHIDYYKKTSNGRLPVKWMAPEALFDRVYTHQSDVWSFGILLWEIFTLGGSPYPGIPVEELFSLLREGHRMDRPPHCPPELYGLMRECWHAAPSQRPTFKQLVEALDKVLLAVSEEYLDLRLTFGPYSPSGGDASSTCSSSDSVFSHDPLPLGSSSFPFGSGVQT
T5 sequence (P22607 23-806 V555M): as the sequence (P22607 23-806) above, with V533M counted along it
T4 sequence (P11362 22-822): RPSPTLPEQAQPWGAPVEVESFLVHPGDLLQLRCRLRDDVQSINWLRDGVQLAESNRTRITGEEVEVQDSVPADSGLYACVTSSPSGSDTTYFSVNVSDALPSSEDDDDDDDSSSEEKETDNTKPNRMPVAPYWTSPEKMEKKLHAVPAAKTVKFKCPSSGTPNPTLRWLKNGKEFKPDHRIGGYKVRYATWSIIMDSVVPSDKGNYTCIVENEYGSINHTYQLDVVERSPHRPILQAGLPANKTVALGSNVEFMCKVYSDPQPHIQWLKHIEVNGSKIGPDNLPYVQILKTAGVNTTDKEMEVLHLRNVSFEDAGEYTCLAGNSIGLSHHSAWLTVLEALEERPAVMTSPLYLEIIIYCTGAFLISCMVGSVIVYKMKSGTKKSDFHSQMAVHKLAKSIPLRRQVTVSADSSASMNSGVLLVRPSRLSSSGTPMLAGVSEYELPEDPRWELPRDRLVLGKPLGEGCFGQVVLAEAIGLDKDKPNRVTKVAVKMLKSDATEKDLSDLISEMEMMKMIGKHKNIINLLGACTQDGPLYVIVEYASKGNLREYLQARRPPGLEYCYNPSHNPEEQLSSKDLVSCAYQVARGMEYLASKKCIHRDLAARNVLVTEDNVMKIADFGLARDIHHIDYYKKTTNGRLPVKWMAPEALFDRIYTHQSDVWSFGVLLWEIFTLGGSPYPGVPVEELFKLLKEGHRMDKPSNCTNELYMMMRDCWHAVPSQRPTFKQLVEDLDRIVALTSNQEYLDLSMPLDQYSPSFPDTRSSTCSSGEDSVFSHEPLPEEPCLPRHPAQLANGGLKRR

SMILES	Kd (FGFR3)	IC50 [1]	pKd (FGFR4)	Kd (FGFR2)	IC50 [2]	Kd (FGFR1)	Kd (FGFR3 (V555M))
CC(C)Oc1cc(N=S(C)(C)=O)ccc1Nc1ncc(Cl)c(-c2c[nH]c3ccccc23)n1 [Example 3, 5-chloro-N-[4-[[dimethyl(oxo)-λ^6-sulfanylidene]amino]-2-isopropoxy-phenyl]-4-(1H-indol-3-yl)pyrimidin-2-amine]	4700 nM	100 nM	6.54	11000 nM	73 nM	4500 nM	
C=CC(=O)Nc1ccc2c(ccn2-c2nc(Nc3ccc(S(C)(=N)=O)cc3OC)ncc2C)c1 (centres unmarked) [Example 75, N-[1-[2-[2-methoxy-4-(methylsulfonimidoyl)anilino]-5-methyl-pyrimidin-4-yl]indol-5-yl]prop-2-enamide]	1100 nM		6.30	1600 nM		5000 nM	380 nM
C=CC(=O)Nc1cccc2c1ccn2-c1nc(Nc2ccc(N=S(C)(C)=O)cc2)ncc1Cl [Example 76, N-[1-[5-Chloro-2-[4-[[dimethyl(oxo)-λ^6-sulfanylidene]amino]anilino]-pyrimidin-4-yl]indol-4-yl]prop-2-enamide]	160 nM		5.52	370 nM		160 nM	12 nM
CCC(=O)Nc1cccc2c1ccn2-c1nc(Nc2ccc(N=S(C)(C)=O)cc2)ncc1Cl [Example 77, N-[1-[5-Chloro-2-[4-[[dimethyl(oxo)-λ^6-sulfanylidene]amino]anilino]-pyrimidin-4-yl]indol-4-yl]propanamide]	130 nM		5.59	260 nM		170 nM	7 nM
CS(C)(=O)=Nc1ccc(Nc2ncc(Cl)c(-n3ccc4c(NC(=O)C5CC5)cccc43)n2)cc1 [Example 78, N-[1-[5-Chloro-2-[4-[[dimethyl(oxo)-λ^6-sulfanylidene]amino]anilino]-pyrimidin-4-yl]indol-4-yl]cyclopropanecarboxamide]	140 nM		5.34	290 nM		250 nM	5 nM
CS(C)(=O)=Nc1ccc(Nc2ncc(Cl)c(-n3ccc4cc(NC(=O)C5CC5)ccc43)n2)cc1 [Example 80, N-[1-[5-Chloro-2-[4-[[dimethyl(oxo)-λ^6-sulfanylidene]amino]anilino]-pyrimidin-4-yl]indol-5-yl]cyclopropanecarboxamide]	340 nM		5.28	680 nM		740 nM	23 nM
C=CC(=O)Nc1ccc2c(ccn2-c2nc(Nc3ccc(N=S(C)(C)=O)c(F)c3)ncc2Cl)c1C [Example 84, N-[1-[5-Chloro-2-[4-[[dimethyl(oxo)-λ^6-sulfanylidene]amino]-3-fluoro-anilino]pyrimidin-4-yl]-4-methyl-indol-5-yl]prop-2-enamide]	150 nM		5.64	330 nM		390 nM	11 nM
CS(C)(=O)=Nc1ccc(Nc2ncc(Cl)c(-n3ncc4cc(N)ccc43)n2)cc1 [Example 87, 1-[5-Chloro-2-[4-[[dimethyl(oxo)-λ^6-sulfanylidene]amino]anilino]-pyrimidin-4-yl]indazol-5-amine]	130 nM		5.62	130 nM		160 nM	16 nM

Molecules with a lower Kd (FGFR3), results first:

Kd (FGFR3)	IC50 [1]	pKd (FGFR4)	Kd (FGFR2)	IC50 [2]	Kd (FGFR1)	Kd (FGFR3 (V555M))	SMILES
87 nM		6.00	140 nM		140 nM	7 nM	CS(C)(=O)=Nc1ccc(Nc2ncc(Cl)c(-n3ccc4c(N)cccc43)n2)cc1 [Example 79, 1-[5-Chloro-2-[4-[[dimethyl(oxo)-λ^6-sulfanylidene]amino]anilino]-pyrimidin-4-yl]indol-4-amine]
70 nM		6.29	50 nM		76 nM	7.5 nM	C=CC(=O)Nc1ccc2c(-c3nc(Nc4ccc(S(C)(=N)=O)cc4)ncc3Cl)c[nH]c2c1 (centres unmarked) [Example 89, N-[3-[5-chloro-2-[4-(methylsulfonimidoyl)anilino]pyrimidin-4-yl]-1H-indol-6-yl]prop-2-enamide]
59 nM		5.96	79 nM		86 nM	3 nM	CCC(=O)Nc1cccc2c1ccn2-c1nc(Nc2ccc(N3CCS(=N)(=O)CC3)cc2)ncc1Cl [Example 83, N-[1-[5-Chloro-2-[4-(1-imino-1-oxo-1,4-thiazinan-4-yl)anilino]pyrimidin-4-yl]indol-4-yl]propanamide]
46 nM		6.62	63 nM		90 nM	7.1 nM	C=CC(=O)Nc1ccc2c(cnn2-c2nc(Nc3ccc(N=S(C)(C)=O)cc3)ncc2Cl)c1 [Example 86, N-[1-[5-Chloro-2-[4-[[dimethyl(oxo)-λ^6-sulfanylidene]amino]anilino]-pyrimidin-4-yl]indazol-5-yl]prop-2-enamide]
42 nM		6.35	50 nM		59 nM	2 nM	N=S1(=O)CCN(c2ccc(Nc3ncc(Cl)c(-n4ccc5c(N)cccc54)n3)cc2)CC1 [Example 82, 1-[5-Chloro-2-[4-(1-imino-1-oxo-1,4-thiazinan-4-yl)anilino]pyrimidin-4-yl]indol-4-amine]
23 nM		5.72	62 nM		51 nM	2 nM	C=CC(=O)Nc1cccc2c1ccn2-c1nc(Nc2ccc(N3CCS(=N)(=O)CC3)cc2)ncc1Cl [Example 81]
13 nM	63 nM	7.05	9 nM	117 nM	7 nM	2 nM	Cc1cnc(Nc2ccc(N=S(C)(C)=O)c(Cl)c2)nc1-c1c[nH]c2ccccc12 [Example 25, N-[3-chloro-4-[[dimethyl(oxo)-λ^6-sulfanylidene]amino]phenyl]-4-(1H-indol-3-yl)-5-methyl-pyrimidin-2-amine]
12 nM	118 nM	6.89	6 nM	132 nM	8 nM	1 nM	Cc1cnc(Nc2ccc(N=S(C)(C)=O)nc2)nc1-c1c[nH]c2ccccc12 [Example 23, N-[6-[[dimethyl(oxo)-λ^6-sulfanylidene]amino]-3-pyridyl]-4-(1H-indol-3-yl)-5-methyl-pyrimidin-2-amine]
10 nM	33 nM	7.06	7 nM	60 nM	4 nM	1 nM	Cc1cc(Nc2ncc(C)c(-c3c[nH]c4ccccc34)n2)ccc1N=S(C)(C)=O [Example 24, N-[4-[[dimethyl(oxo)-λ^6-sulfanylidene]amino]-3-methyl-phenyl]-4-(1H-indol-3-yl)-5-methyl-pyrimidin-2-amine]
